Consider 1 compound from PMC8401265, “Evolutionary Diversification of Host-Targeted Bartonella Effectors Proteins Derived from a Conserved FicTA Toxin-Antitoxin Module” (Microorganisms, 2021).

The structures appear in SMILES notation.

The test concerns the target T1, Btr_BepC FIC (Bartonella tribocorum, UniProt A9IWP7).
T1 construct: gene bepC
The test can be described thus: X-ray crystallography. Type of test: binding. Conditions: active site; pH 6.5 crystals; lysine K150 contacts alpha-phosphate.

T1 sequence (A9IWP7 entry or part of it): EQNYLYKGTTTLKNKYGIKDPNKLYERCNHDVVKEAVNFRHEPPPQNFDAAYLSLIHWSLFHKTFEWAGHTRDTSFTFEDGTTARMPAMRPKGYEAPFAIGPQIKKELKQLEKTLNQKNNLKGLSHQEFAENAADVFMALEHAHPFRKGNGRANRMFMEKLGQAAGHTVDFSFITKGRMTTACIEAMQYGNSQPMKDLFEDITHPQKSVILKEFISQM

As to `Nc1ncnc2c1ncn2[C@@H]1O[C@H](COP(=O)(O)OP(=O)(O)NP(=O)(O)O)[C@@H](O)[C@H]1O` [AMPPNP], the X-ray crystallography result was “the complex of Btr_BepC with AMPPNP (Figure 9A) demonstrates competent tri-phosphate nucleotide binding”.
